Converted amounts (≈) assume the structure as drawn. “And” between values parts separate entries of the source, which are not always exact repeats. Equal values may be shown once. The source made the active and inactive calls. The rule behind the calls is not given here. *1 amine or outer side, *2 acyl side, *3 side chain or, on linkers, in order; H or OH if unused. Where a SMILES comes first, the peptide text is derived from it. Bridges are numbered along the chain shown (N, C = ends). [ ]: non-standard residue; d: D form. The star is where a group is joined. pTerphenylCO(4''-OnC5H11) = CCCCCOc1ccc(-c2ccc(-c3ccc(C(=O)*)cc3)cc2)cc1; Orn(4R-OH,5R-OH) = O=C([C@H](C[C@@H](O)[C@@H](O)N[*:3])N[*:1])[*:2]; hTyr(3S-OH,4S-OH) = N[C@H](C(=O)O)[C@H](O)[C@@H](O)c1ccc(O)cc1; Pro(3S-OH,4S-Me) = C[C@H]1CN[C@H](C(=O)O)[C@H]1O; Hyp = O=C(O)[C@@H]1C[C@@H](O)CN1
Tests used:
Nakaseomyces glabratus [1] = assay: Antifungal activity against Candida glabrata 05-761 isolate assessed as decrease in fungal turbidity in presence of 5% human serum by microdilution method; type: functional
Nakaseomyces glabratus [2] = assay: Antifungal activity against Candida glabrata 05-62 isolate assessed as decrease in fungal turbidity in presence of 50% human serum by microdilution method; type: functional
Nakaseomyces glabratus [3] = assay: Antifungal activity against Candida glabrata 05-62 isolate in presence of 50% mouse serum after 24 hrs by broth microdilution method; type: functional
Nakaseomyces glabratus [4] = assay: Antifungal activity against Candida glabrata 05-62 isolate in presence of 5% human serum after 24 hrs by broth microdilution method; type: functional, organism-based
Nakaseomyces glabratus [5] = assay: Antifungal activity against Candida glabrata 05-62 isolate after 2 hrs in presence of 5% mouse serum by XTT reduction assay; type: functional
Nakaseomyces glabratus [6] = assay: Antifungal activity against Candida glabrata 05-62 isolate after 24 hrs by broth microdilution method; type: functional
Nakaseomyces glabratus [7] = assay: Antifungal activity against Candida glabrata 05-761 isolate infected ICR mouse kidney assessed as reduction of tissue fungal burden at 0.5 mg/kg, ip; type: functional, organism-based; set-up: dose 0.5 mg/kg
Nakaseomyces glabratus [8] = assay: Antifungal activity against Candida glabrata 05-62 isolate after 2 hrs in presence of 50% mouse serum by XTT reduction assay; type: functional
Nakaseomyces glabratus [9] = assay: Antifungal activity against Candida glabrata 05-761 isolate infected ICR mouse kidney assessed as reduction of tissue fungal burden at 5 mg/kg, ip; type: functional, organism-based; set-up: dose 5 mg/kg
Nakaseomyces glabratus [10] = assay: Antifungal activity against Candida glabrata 05-761 isolate in presence of 50% human serum after 24 hrs by broth microdilution method; type: functional
Nakaseomyces glabratus [11] = assay: Antifungal activity against Candida glabrata 05-761 isolate infected ICR mouse kidney assessed as reduction of tissue fungal burden at 1 mg/kg, ip; type: functional, organism-based; set-up: dose 1 mg/kg
Nakaseomyces glabratus [12] = assay: Antifungal activity against Candida glabrata 05-761 isolate assessed as decrease in fungal turbidity by microdilution method; type: functional
Nakaseomyces glabratus [13] = assay: Antifungal activity against Candida glabrata 05-761 isolate assessed as decrease in fungal turbidity in presence of 50% human serum by microdilution method; type: functional
Nakaseomyces glabratus [14] = assay: Antifungal activity against Candida glabrata 05-761 isolate after 24 hrs by broth microdilution method; type: functional
Nakaseomyces glabratus [15] = assay: Antifungal activity against Candida glabrata 05-761 isolate after 22 hrs by XTT assay; type: functional, organism-based
Nakaseomyces glabratus [16] = assay: Antifungal activity against Candida glabrata 05-761 isolate in presence of 50% mouse serum after 24 hrs by broth microdilution method; type: functional
Nakaseomyces glabratus [17] = assay: Antifungal activity against Candida glabrata 05-62 isolate in presence of 5% human serum after 22 hrs by XTT assay; type: functional, organism-based
Nakaseomyces glabratus [18] = assay: Antifungal activity against Candida glabrata 05-761 isolate assessed as decrease in fungal turbidity in presence of 5% mouse serum by microdilution method; type: functional
Nakaseomyces glabratus [19] = assay: Antifungal activity against Candida glabrata 05-62 isolate after 22 hrs by XTT assay; type: functional, organism-based
Nakaseomyces glabratus [20] = assay: Antifungal activity against Candida glabrata 05-62 isolate in presence of 50% human serum after 24 hrs by broth microdilution method; type: functional
Nakaseomyces glabratus [21] = assay: Antifungal activity against Candida glabrata 05-761 isolate assessed as decrease in fungal turbidity in presence of 50% mouse serum by microdilution method; type: functional
Nakaseomyces glabratus [22] = assay: Antifungal activity against Candida glabrata 05-62 isolate assessed as decrease in fungal turbidity in presence of 5% human serum by microdilution method; type: functional
Nakaseomyces glabratus [23] = assay: Antifungal activity against Candida glabrata 05-761 isolate in presence of 5% mouse serum after 24 hrs by broth microdilution method; type: functional
Nakaseomyces glabratus [24] = assay: Antifungal activity against Candida glabrata 05-62 isolate in presence of 5% mouse serum after 24 hrs by broth microdilution method; type: functional
Nakaseomyces glabratus [25] = assay: Antifungal activity against Candida glabrata 05-761 isolate in presence of 5% human serum after 24 hrs by broth microdilution method; type: functional, organism-based
[26] = Nakaseomyces glabratus, 24 h, read-out: MIC

Compound	MIC (Nakaseomyces glabratus [1])	MIC (Nakaseomyces glabratus [2])	MIC (Nakaseomyces glabratus [3])	IC50 (Nakaseomyces glabratus [4])	IC90 (Nakaseomyces glabratus [4])	MIC (Nakaseomyces glabratus [4])	MIC (Nakaseomyces glabratus [5])	MIC (Nakaseomyces glabratus [6]; [26])	Activity (Nakaseomyces glabratus [7])	MIC (Nakaseomyces glabratus [8])	Activity (Nakaseomyces glabratus [9])	MIC (Nakaseomyces glabratus [10])	Activity (Nakaseomyces glabratus [11])	MIC (Nakaseomyces glabratus [12])	MIC (Nakaseomyces glabratus [13])	IC50 (Nakaseomyces glabratus [15])	IC90 (Nakaseomyces glabratus [15])	MIC (Nakaseomyces glabratus [16])	IC50 (Nakaseomyces glabratus [17])	IC90 (Nakaseomyces glabratus [17])	further results
CC[C@H](C)C[C@H](C)CCCCCCCCC(=O)N[C@H]1C[C@@H](O)[C@@H](NCCN)NC(=O)[C@@H]2[C@@H](O)CCN2C(=O)[C@H]([C@H](O)CCN)NC(=O)[C@H]([C@H](O)[C@@H](O)c2ccc(O)cc2)NC(=O)[C@@H]2C[C@@H](O)CN2C(=O)[C@H]([C@@H](C)O)NC1=O [CASPOFUNGIN]	0.25 µg/mL	4 µg/mL	> 32 µg/mL	1.4 µg/mL	> 32 µg/mL	> 32 µg/mL	4 µg/mL	> 32 µg/mL	Active	8 µg/mL	inactive	1 µg/mL	Active	1 µg/mL (≈ 0.915 µM)	1 µg/mL	1.1 µg/mL (≈ 1.01 µM)	1.6 µg/mL (≈ 1.46 µM)	2 µg/mL	1.4 µg/mL	> 32 µg/mL	MIC (Nakaseomyces glabratus [14]; [26]): 2 µg/mL (≈ 1.83 µM); MIC (Nakaseomyces glabratus [18]): 1 µg/mL; IC50 (Nakaseomyces glabratus [19]): 1.2 µg/mL (≈ 1.1 µM); IC90 (Nakaseomyces glabratus [19]): > 32 µg/mL; MIC (Nakaseomyces glabratus [20]): > 32 µg/mL; MIC (Nakaseomyces glabratus [21]): 2 µg/mL; MIC (Nakaseomyces glabratus [22]): 2 µg/mL; MIC (Nakaseomyces glabratus [23]): 1 µg/mL; MIC (Nakaseomyces glabratus [24]): > 32 µg/mL; IC50 (Nakaseomyces glabratus [25]): 0.29 µg/mL; IC90 (Nakaseomyces glabratus [25]): 0.33 µg/mL; MIC (Nakaseomyces glabratus [25]): 0.5 µg/mL
CCCCCOc1ccc(-c2ccc(-c3ccc(C(=O)N[C@H]4C[C@@H](O)[C@@H](O)NC(=O)[C@@H]5[C@@H](O)[C@@H](C)CN5C(=O)[C@H]([C@@H](C)O)NC(=O)[C@H]([C@H](O)[C@@H](O)c5ccc(O)cc5)NC(=O)[C@@H]5C[C@@H](O)CN5C(=O)[C@H]([C@@H](C)O)NC4=O)cc3)cc2)cc1 [ANIDULAFUNGIN] ({pTerphenylCO(4''-OnC5H11)}-[Orn(4R-OH,5R-OH)]T[Hyp][hTyr(3S-OH,4S-OH)]T[Pro(3S-OH,4S-Me)]; lactam 1-C)	0.5 µg/mL	8 µg/mL	8 µg/mL	1.7 µg/mL	3.1 µg/mL	2 µg/mL	4 µg/mL	0.5 µg/mL (≈ 0.438 µM)	Active	8 µg/mL	inactive	2 µg/mL	Active	0.06 µg/mL (≈ 0.0526 µM)	1 µg/mL	0.05 µg/mL (≈ 0.0438 µM)	0.16 µg/mL (≈ 0.14 µM)	1 µg/mL	1.7 µg/mL	3.1 µg/mL	MIC (Nakaseomyces glabratus [6]): 0.25 µg/mL (≈ 0.219 µM); MIC (Nakaseomyces glabratus [14]): 0.125 µg/mL and 0.06 µg/mL; MIC (Nakaseomyces glabratus [18]): 0.5 µg/mL; IC50 (Nakaseomyces glabratus [19]): 0.31 µg/mL (≈ 0.272 µM); IC90 (Nakaseomyces glabratus [19]): 0.41 µg/mL (≈ 0.36 µM); MIC (Nakaseomyces glabratus [20]): 16 µg/mL; MIC (Nakaseomyces glabratus [21]): 1 µg/mL; MIC (Nakaseomyces glabratus [22]): 2 µg/mL; MIC (Nakaseomyces glabratus [23]): 0.5 µg/mL; MIC (Nakaseomyces glabratus [24]): 4 µg/mL; IC50 (Nakaseomyces glabratus [25]): 0.31 µg/mL; IC90 (Nakaseomyces glabratus [25]): 0.39 µg/mL; MIC (Nakaseomyces glabratus [25]): 0.5 µg/mL

From ChEMBL document CHEMBL1143840, “In vivo efficacy of anidulafungin and caspofungin against Candida glabrata and association with in vitro potency in the presence of sera” (Antimicrob Agents Chemother, 2007)
